Results on 68 compounds are retold here after the Kinase Knowledgebase extract (Sharma et al. 2016).

The target of this experiment is ROCK2 (UniProt O75116). The experiment is described as follows: Inhibition of ROCK2 Kinase Activity.

Usually Ki stands for a measure of affinity in units of concentration, obtained from inhibition or displacement. Low readings indicate higher affinity, high ones lower affinity.

Chain of ROCK2 (O75116 whole entry, looked up): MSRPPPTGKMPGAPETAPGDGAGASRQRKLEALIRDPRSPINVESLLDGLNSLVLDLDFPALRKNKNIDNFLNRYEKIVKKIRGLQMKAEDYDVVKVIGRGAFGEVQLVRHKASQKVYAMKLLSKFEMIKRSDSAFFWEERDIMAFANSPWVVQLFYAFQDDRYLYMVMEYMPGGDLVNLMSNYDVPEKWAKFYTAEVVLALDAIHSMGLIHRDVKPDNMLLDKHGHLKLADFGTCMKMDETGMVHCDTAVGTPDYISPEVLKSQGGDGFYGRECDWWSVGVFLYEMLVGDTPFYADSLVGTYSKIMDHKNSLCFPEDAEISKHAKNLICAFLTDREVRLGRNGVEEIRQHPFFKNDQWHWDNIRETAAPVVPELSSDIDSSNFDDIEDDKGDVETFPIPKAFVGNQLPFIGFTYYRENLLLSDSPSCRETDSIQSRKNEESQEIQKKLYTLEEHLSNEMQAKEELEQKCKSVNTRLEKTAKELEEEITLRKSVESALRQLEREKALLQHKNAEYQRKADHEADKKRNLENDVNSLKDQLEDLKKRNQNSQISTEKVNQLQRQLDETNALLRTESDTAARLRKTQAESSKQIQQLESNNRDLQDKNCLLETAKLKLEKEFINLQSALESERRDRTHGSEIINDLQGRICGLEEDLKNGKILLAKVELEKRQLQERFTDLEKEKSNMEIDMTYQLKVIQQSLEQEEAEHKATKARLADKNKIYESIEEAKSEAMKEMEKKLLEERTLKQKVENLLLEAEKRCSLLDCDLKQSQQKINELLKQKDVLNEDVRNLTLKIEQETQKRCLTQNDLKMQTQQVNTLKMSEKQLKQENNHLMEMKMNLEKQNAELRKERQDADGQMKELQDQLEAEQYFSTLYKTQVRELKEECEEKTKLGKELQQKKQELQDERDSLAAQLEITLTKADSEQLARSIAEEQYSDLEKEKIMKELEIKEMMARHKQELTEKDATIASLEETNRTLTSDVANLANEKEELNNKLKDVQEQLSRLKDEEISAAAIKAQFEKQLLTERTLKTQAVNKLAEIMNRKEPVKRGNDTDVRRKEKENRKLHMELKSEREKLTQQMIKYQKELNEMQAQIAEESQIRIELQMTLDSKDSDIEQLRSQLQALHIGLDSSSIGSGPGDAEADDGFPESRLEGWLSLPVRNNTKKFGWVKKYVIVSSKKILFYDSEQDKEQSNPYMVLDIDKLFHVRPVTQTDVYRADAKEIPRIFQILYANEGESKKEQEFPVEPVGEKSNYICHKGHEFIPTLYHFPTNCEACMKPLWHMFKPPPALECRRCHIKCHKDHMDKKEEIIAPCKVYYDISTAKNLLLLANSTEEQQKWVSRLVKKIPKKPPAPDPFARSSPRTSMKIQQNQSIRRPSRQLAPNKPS

`C=CCOc1c(-c2ccc(C(C)(C)N)cc2)ccc2[nH]ncc12` returned a Ki of 23 nM. In other words, the double-digit nanomolar range.
Compound `CN(C)c1c(-c2ccc(C3(N)CCCC3)cc2)ccc2[nH]ncc12` gave a Ki of 14 nM.
The figure for `CN(C)c1c(-c2ccc(C(C)(C)N)cc2)ccc2[nH]ncc12` is 16 nM.
The figure for `C=C(C)c1n[nH]c2ccc(-c3ccc(C(C)(C)N)cc3)cc12` is 56 nM; for `CC(C)(N)c1ccc(-c2ccc3[nH]ncc3c2OC(F)F)nc1` it is 6.9 nM; for `CC(C)(N)c1ccc(-c2ccc3[nH]nc(CO)c3c2)cc1` it is 142 nM.
The figure for `CC(C)(N)c1ccc(-c2ccc3[nH]ncc3c2OCC(F)(F)F)cc1` is 31 nM.
Consider `CN(C)c1c(-c2ccc(CN)cc2)ccc2[nH]ncc12`, for which the Ki turned out to be 29 nM.
In turn, `CNc1c(-c2ccc(C(C)(C)N)cc2)ccc2[nH]ncc12` had a Ki of 15 nM.
`CCC(N)(CC)c1ccc(-c2ccc3[nH]ncc3c2N)cc1` had a Ki of 38 nM.
`CC(C)(N)c1ccc(-c2ccc3[nH]ncc3c2-c2cnco2)cc1` came in with a Ki of 2.6 nM.
`CC(C)(N)c1ccc(-c2ccc3[nH]ncc3c2N2CCOCC2)cc1` had an inhibition constant Ki of 211 nM.
For the compound `C=Cc1c(-c2ccc(C(C)(C)N)cn2)ccc2[nH]ncc12`, the Ki came out at 17 nM. Against the preceding compound, the Ki is about 12-fold lower.
In turn, `CC(C)(N)c1ccc(-c2ccc3[nH]nc(C(N)=O)c3c2)cc1` displayed an inhibitory constant (Ki) of 134 nM.
Consider `NCc1ccc(-c2ccc3[nH]ncc3c2N)cc1`, for which the Ki was found to be 61 nM.
The compound `CC(C)(N)c1ccc(-c2ccc3[nH]ncc3c2)nc1` registered a Ki of 20 nM.
As for `CC(C)(N)c1ccc(-c2ccc3[nH]ncc3c2-c2ccncc2)cc1`, the inhibition constant (Ki) was 45 nM.
The figure for `CC(C)(N)c1ccc(-c2ccc3[nH]ncc3c2N)cc1` is 44 nM; for `CC(C)(N)c1ccc(-c2ccc3[nH]ncc3c2CCO)nc1` it is 234 nM; for `CC(C)(N)c1ccc(-c2ccc3[nH]ncc3c2N2CCCCC2)cc1` it is 14 nM.
In the case of `CC(C)(N)c1ccc(-c2ccc3[nH]ncc3c2[N+](=O)[O-])cc1` it was 28 nM; in that of `CCCOc1c(-c2ccc(C(C)(C)N)cn2)ccc2[nH]ncc12`, 39 nM; in that of `CCN(CC)c1c(-c2ccc(C(C)(C)N)cc2)ccc2[nH]ncc12`, 614 nM.
The figure for `CC(C)(N)c1ccc(-c2ccc3[nH]ncc3c2C2CC2)nc1` is 2.7 nM; for `NCc1ccc(-c2ccc3[nH]ncc3c2[N+](=O)[O-])cc1` it is 55 nM.
As to `CC(C)(N)c1ccc(-c2ccc3[nH]ncc3c2-c2cccnc2)cc1`, the inhibition constant (Ki) was determined as 126 nM.
Take `CCC(N)(CC)c1ccc(-c2ccc3[nH]ncc3c2OC(F)F)cc1`: the Ki came to 13 nM.
In the case of `CC(C)(N)c1ccc(-c2ccc3[nH]nc(N)c3c2)cc1` it was 144 nM.
Take `CC(C)(N)c1ccc(-c2ccc3[nH]ncc3c2OC2CC2)nc1`: the inhibitory constant (Ki) was 28 nM.
Compound `CC(N)c1ccc(-c2ccc3[nH]ncc3c2N(C)C)cc1` (stereo not drawn) had an inhibition constant (Ki) of 27 nM.
`CC(C)Oc1c(-c2ccc(C(C)(C)N)cn2)ccc2[nH]ncc12`: the Ki stood at 84 nM. Compared with the last compound, the Ki is about 3.1-fold higher.
On to `CC(C)(N)c1ccc(-c2ccc3[nH]ncc3c2OCCF)cc1`, for which the Ki is 26 nM.
In the case of `CC(C)Oc1c(-c2ccc(C(C)(C)N)cc2)ccc2[nH]ncc12` it was 33 nM; in that of `CCCOc1c(-c2ccc(C(C)(C)N)cc2)ccc2[nH]ncc12`, 14 nM; in that of `CC(C)(N)c1ccc(-c2ccc3[nH]ncc3c2-c2cn[nH]c2)nc1`, 56 nM.
Compound `CC(C)(N)c1ccc(-c2ccc3[nH]ncc3c2OC(F)F)cc1` yielded an inhibitory constant (Ki) of 3.6 nM.
The figure for `CCC(N)(CC)c1ccc(-c2ccc3[nH]ncc3c2OC2CC2)nc1` is 34 nM; for `CC(C)(N)c1cnc(-c2ccc3[nH]ncc3c2)c(Cl)c1` it is 86 nM.
Compound `CCOc1c(-c2ccc(C(N)(CC)CC)cn2)ccc2[nH]ncc12` returned a Ki of 35 nM.
`CCOc1c(-c2ccc(C(C)(C)N)cn2)ccc2[nH]ncc12` had a Ki of 45 nM. This Ki and that of the compound before are within 1.5-fold of each other.
The compound `CC(C)(N)c1ccc(-c2ccc3[nH]ncc3c2[N+](=O)[O-])nc1` returned an inhibition constant Ki of 199 nM.
The figure for `CC(C)(N)c1ccc(-c2ccc3[nH]ncc3c2-n2cccc2)cc1` is 12 nM.
In the case of `COc1c(-c2ccc(C(C)(C)N)cn2)ccc2[nH]ncc12` it was 27 nM.
The figure for `CC(C)(N)c1ccc(-c2ccc3[nH]ncc3c2-c2cc[nH]n2)cc1` is 11 nM; for `CC(C)(N)c1ccc(-c2ccc3[nH]ncc3c2OCC2CC2)nc1` it is 146 nM.
In turn, `CCc1c(-c2ccc(C(C)(C)N)cn2)ccc2[nH]ncc12` gave an inhibition constant (Ki) of 15 nM.
In the case of `CC(C)(N)c1ccc(-c2ccc3[nH]ncc3c2-c2cn[nH]c2)cc1` it was 4.4 nM; in that of `CC(C)(N)c1ccc(-c2ccc3[nH]ncc3c2)cc1`, 19 nM.
In the case of `CCOc1c(-c2ccc(C(C)(C)N)cc2)ccc2[nH]ncc12` it was 17 nM.
As to `CC(C)(N)c1ccc(-c2ccc3[nH]nc(C=NO)c3c2)cc1`, the Ki came out at 7.5 nM. Compared with the last compound, the Ki is about 2.3-fold lower.
The compound `COc1c(-c2ccc(C3(N)CCCC3)cn2)ccc2[nH]ncc12` registered a Ki of 27 nM.
`CC(C)(N)c1ccc(-c2ccc3[nH]ncc3c2-c2ccccn2)cc1`: the inhibition constant (Ki) amounted to 241 nM.
The figure for `CC(C)(N)c1ccc(-c2ccc3[nH]nc(C#N)c3c2)cc1` is 103 nM; for `CC(C)(N)c1ccc(-c2ccc3[nH]ncc3c2CO)cc1` it is 139 nM; for `Nc1c(-c2ccc(C3(N)CCCC3)cc2)ccc2[nH]ncc12` it is 26 nM.
In the case of `CC(C)(N)c1ccc(-c2ccc3[nH]ncc3c2C#N)cc1` it was 35 nM; in that of `CCC(N)(CC)c1ccc(-c2ccc3[nH]ncc3c2N(C)C)cc1`, 23 nM; in that of `CC(O)c1c(-c2ccc(C(C)(C)N)cc2)ccc2[nH]ncc12` (stereo not drawn), 294 nM.
`CC(C)(N)c1ccc(-c2ccc3[nH]ncc3c2CCO)cc1` yielded a Ki of 47 nM.
`COc1c(-c2ccc(C(C)(C)N)cc2)ccc2[nH]ncc12` displayed a Ki of 13 nM.
In the case of `COC(=O)c1n[nH]c2ccc(-c3ccc(C(C)(C)N)cc3)cc12` it was 97 nM.
The figure for `CC(C)(N)c1ccc(-c2ccc3[nH]ncc3c2O)nc1` is 55 nM; for `CC(C)(N)c1ccc(-c2ccc3[nH]ncc3c2-c2ccno2)cc1` it is 6.4 nM.
In the case of `CCCCOc1c(-c2ccc(C(C)(C)N)cc2)ccc2[nH]ncc12` it was 13 nM; in that of `CC(C)(N)c1ccc(-c2ccc3[nH]ncc3c2N2CCCC2)cc1`, 14 nM.
As to `CC(C)(N)c1ccc(-c2ccc3[nH]ncc3c2O)cc1`, the inhibitory constant (Ki) stood at 29 nM. This Ki is about 2.1-fold higher than that of the compound before.
The figure for `CCC(N)(CC)c1ccc(-c2ccc3[nH]ncc3c2OC)nc1` is 38 nM; for `CC(C)(N)c1ccc(-c2ccc3[nH]ncc3c2NCc2ccccc2)cc1` it is 260 nM.
